Measured values reported in patent publication US11053204B2, “Pyrimidinyloxy benzene derivatives as herbicides” (FMC Corporation, priority 2015, dated 2021).

Key:
Type in all cases: in vivo
[1] = system: pigweed, palmer (palmer pigweed, Amaranthus palmeri); experiment: Test C preemergence, plant response rating
kochia (Kochia scoparia) [2] = experiment: Test C preemergence, plant response rating
[3] = system: barnyardgrass (Echinochloa crus-galli); experiment: Test A preemergence, visual injury rating
Procedure, shortened: (§1)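 Compounds in non-phytotoxic solvent with surfactant applied as soil spray preemergence, or postemergence to plants 2-10 cm at one- to two-leaf stage, in loam/sand. After approximately 10 days in greenhouse, injury rated visually versus untreated controls, 0 (no effect) to 100 (complete control).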

kochia (Kochia scoparia) [4] = experiment: Test A preemergence, visual injury rating
Procedure, shortened: as §1

[5] = system: giant foxtail (Setaria faberii); experiment: Test A preemergence, visual injury rating
Procedure, shortened: as §1

[6] = system: pigweed (Amaranthus retroflexus); experiment: Test A preemergence, visual injury rating
Procedure, shortened: as §1

[7] = system: ragweed (common ragweed, Ambrosia elatior); experiment: Test A preemergence, visual injury rating
Procedure, shortened: as §1

[8] = system: Italian ryegrass (Lolium multiflorum); experiment: Test A preemergence, visual injury rating
Procedure, shortened: as §1

[9] = system: wild mustard (Sinapis arvensis); experiment: Test C postemergence, plant response rating; conditions: for Mustard, Wild plant response rating: scale 0 to 100 (0 no effect, 100 complete control)
Procedure, shortened: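 Pre-emergence: seeds sown in loam soil–sand blend or silt loam and sprayed with test chemicals in a non-phytotoxic solvent mixture with surfactant. Post-emergence: plants 2 to 18 cm (1- to 4-leaf stage) in peat-based potting medium, same formulation. Greenhouse 13 to 15 d; visual rating 0 (no effect) to 100 (complete control) versus controls.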

[10] = system: barnyardgrass (Echinochloa crus-galli); experiment: Test A postemergence, visual injury rating; conditions: 0 to 100 scale, 0 is no effect, 100 is complete control, approximately 10 days
Procedure, shortened: as §1

kochia (Kochia scoparia) [11] = experiment: Test A postemergence, visual injury rating
Procedure, shortened: as §1

[12] = system: giant foxtail (Setaria faberii); experiment: Test A postemergence, visual injury rating
Procedure, shortened: as §1

[13] = system: galium (catchweed bedstraw, Galium aparine); experiment: Test A postemergence, visual injury rating
Procedure, shortened: as §1

corn (Zea mays) = experiment: Test A postemergence, visual injury rating
Procedure, shortened: as §1

[14] = system: pigweed (Amaranthus retroflexus); experiment: Test A postemergence, visual injury rating
Procedure, shortened: as §1

[15] = system: blackgrass (Alopecurus myosuroides); experiment: Test A postemergence, visual injury rating
Procedure, shortened: as §1

[16] = system: ragweed (common ragweed, Ambrosia elatior); experiment: Test A postemergence, visual injury rating
Procedure, shortened: as §1

[17] = system: Italian ryegrass (Lolium multiflorum); experiment: Test A postemergence, visual injury rating
Procedure, shortened: as §1

[18] = system: wheat (Triticum aestivum); experiment: Test A postemergence, visual injury rating
Procedure, shortened: as §1

[19] = system: surinam grass (Brachiaria decumbens); experiment: Test C preemergence, plant response rating
[20] = 31 g ai/ha, 0 to 100 scale, 0 no effect, 100 complete control
[21] = 125 g ai/ha, 0 to 100 scale (0 no effect, 100 complete control)
[22] = 31 g ai/ha, 0 to 100 scale (0 no effect, 100 complete control)
[23] = 125 g ai/ha, 0 to 100 scale, 0 is no effect, 100 is complete control, approximately 10 days

With `FC(F)(F)CCCCc1c(Br)cccc1Oc1ncc(Cl)cn1` [Compound 138] the “Plant response rating, Pigweed, Palmer” value ([1]; 31 g ai/ha, scale 0 to 100) was 60, the “Plant response rating, Pigweed, Palmer” value ([1]; 62 g ai/ha, scale 0 to 100) was 100 and the “Plant response rating, Pigweed, Palmer” value ([1]; 125 g ai/ha, scale of 0 to 100) was 100. The “Plant response rating, Kochia” value (kochia (Kochia scoparia) [2]; 31 g ai/ha, scale 0 to 100) was 75, the “Plant response rating, Kochia” value (kochia (Kochia scoparia) [2]; 62 g ai/ha, scale 0 to 100) was 80 and the “Plant response rating, Kochia” value (kochia (Kochia scoparia) [2]; 125 g ai/ha, scale of 0 to 100) was 80. For the same molecule, the “Plant response rating, Barnyardgrass” value [3, 20] was 70, the “Plant response rating, Barnyardgrass” value [3, 21] was 100 and the “Plant response rating, Kochia” value (kochia (Kochia scoparia) [4]; [20]) was 50. For the same molecule, the “Plant response rating, Kochia” value (kochia (Kochia scoparia) [4]; [21]) was 100, the “Plant response rating, Foxtail, Giant” value [5, 20] was 90 and the “Plant response rating, Foxtail, Giant” value [5, 21] was 100. The “Plant response rating, Pigweed” value [6, 20] was 80, the “Plant response rating, Pigweed” value [6, 21] was 100 and the “Plant response rating, Ragweed” value [7, 20] was 0. The “Plant response rating, Ragweed” value [7, 21] was 0, the “Plant response rating, Ryegrass, Italian” value [8, 20] was 10 and the “Plant response rating, Ryegrass, Italian” value [8, 21] was 100. The “Plant response rating, Mustard, Wild” value ([9]; 16 g ai/ha, scale of 0 to 100) was 100, the “Plant response rating, Mustard, Wild” value ([9]; 31 g ai/ha, scale 0 to 100) was 100 and the “Mustard, Wild plant response rating” value ([9]; 62 g ai/ha) was 100. The “Mustard, Wild plant response rating” value ([9]; 125 g ai/ha) was 100, the “Barnyardgrass plant response rating” value ([10]; 31 g ai/ha) was 90 and the “Barnyardgrass plant response rating” value ([10]; 125 g ai/ha) was 90. For the same molecule, the “Kochia plant response rating” value (kochia (Kochia scoparia) [11]; [22]) was 90, the “Kochia plant response rating” value (kochia (Kochia scoparia) [11]; [23]) was 100 and the “Foxtail, Giant plant response rating” value [12, 22] was 90. For the same molecule, the “Foxtail, Giant plant response rating” value [12, 23] was 90, the “Galium plant response rating” value [13, 22] was 70 and the “Galium plant response rating” value [13, 23] was 100. The “Corn plant response rating” value (corn (Zea mays); [22]) was 30, the “Corn plant response rating” value (corn (Zea mays); [23]) was 60 and the “Pigweed plant response rating” value [14, 22] was 100. The “Pigweed plant response rating” value [14, 23] was 100, the “Blackgrass plant response rating” value [15, 22] was 40 and the “Blackgrass plant response rating” value [15, 23] was 90. The “Ragweed plant response rating” value [16, 22] was 30, the “Ragweed plant response rating” value [16, 23] was 60 and the “Ryegrass, Italian plant response rating” value [17, 22] was 30. The “Ryegrass, Italian plant response rating” value [17, 23] was 100, the “Wheat plant response rating” value [18, 22] was 20 and the “Wheat plant response rating” value [18, 23] was 40. The “Plant response rating, Surinam Grass” value ([19]; 31 g ai/ha, scale 0 to 100) was 65, the “Plant response rating, Surinam Grass” value ([19]; 62 g ai/ha, scale 0 to 100) was 65 and the “Plant response rating, Surinam Grass” value ([19]; 125 g ai/ha, scale of 0 to 100) was 75.
For `N#CC(CCCC(F)(F)F)c1ccccc1Oc1ncc(Cl)cn1` (stereo not drawn) [Compound 144], the “Plant response rating, Pigweed, Palmer” value ([1]; 31 g ai/ha, scale 0 to 100) was 100, the “Plant response rating, Pigweed, Palmer” value ([1]; 62 g ai/ha, scale 0 to 100) was 100 and the “Plant response rating, Pigweed, Palmer” value ([1]; 125 g ai/ha, scale of 0 to 100) was 100. For the same molecule, the “Plant response rating, Kochia” value (kochia (Kochia scoparia) [2]; 31 g ai/ha, scale 0 to 100) was 90, the “Plant response rating, Kochia” value (kochia (Kochia scoparia) [2]; 62 g ai/ha, scale 0 to 100) was 100 and the “Plant response rating, Kochia” value (kochia (Kochia scoparia) [2]; 125 g ai/ha, scale of 0 to 100) was 100. The “Plant response rating, Barnyardgrass” value [3, 20] was 80, the “Plant response rating, Barnyardgrass” value [3, 21] was 100 and the “Plant response rating, Kochia” value (kochia (Kochia scoparia) [4]; [20]) was 90. For the same molecule, the “Plant response rating, Kochia” value (kochia (Kochia scoparia) [4]; [21]) was 100, the “Plant response rating, Foxtail, Giant” value [5, 20] was 100 and the “Plant response rating, Foxtail, Giant” value [5, 21] was 100. The “Plant response rating, Pigweed” value [6, 20] was 100, the “Plant response rating, Pigweed” value [6, 21] was 100 and the “Plant response rating, Ragweed” value [7, 20] was 0. For the same molecule, the “Plant response rating, Ragweed” value [7, 21] was 10, the “Plant response rating, Ryegrass, Italian” value [8, 20] was 20 and the “Plant response rating, Ryegrass, Italian” value [8, 21] was 70. The “Plant response rating, Mustard, Wild” value ([9]; 16 g ai/ha, scale of 0 to 100) was 70, the “Plant response rating, Mustard, Wild” value ([9]; 31 g ai/ha, scale 0 to 100) was 70 and the “Mustard, Wild plant response rating” value ([9]; 62 g ai/ha) was 80. For the same molecule, the “Mustard, Wild plant response rating” value ([9]; 125 g ai/ha) was 95, the “Barnyardgrass plant response rating” value ([10]; 31 g ai/ha) was 40 and the “Barnyardgrass plant response rating” value ([10]; 125 g ai/ha) was 90. The “Kochia plant response rating” value (kochia (Kochia scoparia) [11]; [22]) was 90, the “Kochia plant response rating” value (kochia (Kochia scoparia) [11]; [23]) was 100 and the “Foxtail, Giant plant response rating” value [12, 22] was 60. The “Foxtail, Giant plant response rating” value [12, 23] was 90, the “Galium plant response rating” value [13, 22] was 40 and the “Galium plant response rating” value [13, 23] was 100. The “Corn plant response rating” value (corn (Zea mays); [22]) was 20, the “Corn plant response rating” value (corn (Zea mays); [23]) was 80 and the “Pigweed plant response rating” value [14, 22] was 90. For the same molecule, the “Pigweed plant response rating” value [14, 23] was 100, the “Blackgrass plant response rating” value [15, 22] was 50 and the “Blackgrass plant response rating” value [15, 23] was 90. The “Ragweed plant response rating” value [16, 22] was 10, the “Ragweed plant response rating” value [16, 23] was 10 and the “Ryegrass, Italian plant response rating” value [17, 22] was 30. The “Ryegrass, Italian plant response rating” value [17, 23] was 80, the “Wheat plant response rating” value [18, 22] was 10 and the “Wheat plant response rating” value [18, 23] was 60. The “Plant response rating, Surinam Grass” value ([19]; 31 g ai/ha, scale 0 to 100) was 5, the “Plant response rating, Surinam Grass” value ([19]; 62 g ai/ha, scale 0 to 100) was 70 and the “Plant response rating, Surinam Grass” value ([19]; 125 g ai/ha, scale of 0 to 100) was 60.
